Data on five molecules can be found in patent publication US20100324147A1, “ARYLCYCLOPROPYLAMINES AND METHODS OF USE” (priority 2009, published 2010).

Holding throughout (assay type): biochemical
The target in test [1] is T1, MAO A (Homo sapiens, UniProt P21397).
T1 sequence (P21397 1-527): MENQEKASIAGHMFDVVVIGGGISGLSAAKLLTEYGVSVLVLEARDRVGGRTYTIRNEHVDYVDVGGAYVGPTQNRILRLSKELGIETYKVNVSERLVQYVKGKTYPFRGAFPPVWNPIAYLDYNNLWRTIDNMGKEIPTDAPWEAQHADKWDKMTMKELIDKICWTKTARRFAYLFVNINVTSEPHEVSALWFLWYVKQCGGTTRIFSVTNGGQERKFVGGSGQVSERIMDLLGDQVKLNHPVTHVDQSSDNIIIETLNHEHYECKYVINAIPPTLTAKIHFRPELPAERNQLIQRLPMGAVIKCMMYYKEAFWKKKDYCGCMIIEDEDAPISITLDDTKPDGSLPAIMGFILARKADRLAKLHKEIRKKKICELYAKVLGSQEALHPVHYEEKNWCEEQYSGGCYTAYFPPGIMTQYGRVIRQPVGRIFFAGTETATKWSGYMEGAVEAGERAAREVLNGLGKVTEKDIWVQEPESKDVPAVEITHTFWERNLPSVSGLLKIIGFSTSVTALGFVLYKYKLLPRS
Kind of test: HRP-coupled amine oxidase assay, time-dependent inactivation of MAO A. As to conditions: for Ki: inhibitor concentration that yields half the maximal rate of inactivation; for kinact: maximal rate of inactivation. How it is done: (§1) For example, in vitro enzymatic assays may be performed in which hydrogen peroxide generated from reoxidation of the FAD cofactor by molecular oxygen by LSD1 or MAOs is monitored, e.g., using a horseradish peroxidase (HRP) coupled assay. The enzyme may be incubated with an appropriate peptide substrate that includes a dimethylated lysine residue, as well as an arylcyclopropylamine compound of the invention. A fluorogenic substrate may be included in the reaction, which upon reaction with H2O2 produced by the enzyme produces a fluorescent substrate that may be detected. Inhibition kinetics may then be determined by appropriate fitting of the data.
(§2) The peroxide production generated from reoxidation of the FAD cofactor by molecular oxygen by LSD1 or MAOs was monitored using a horseradish peroxidase (HRP) coupled assay (FIG. 1). Amplex red was used as the fluorogenic electron acceptor and the fluorescence (excitation 560 nm, emission 590 nm) was measured using a Molecular Devices Spectra Max Gemini EM plate reader. The inhibition kinetics were determined by fitting the progress curves to eq. 1 describing time-dependent inactivation to determine kobs:
(§3) product=(vi/kobs)(1−e^−k^obs^t) (1)
(§4) where vi is the initial rate prior to inactivation, t is time and kobs is the observed rate of inactivation. The resulting values were plotted as a function of inhibitor concentration to obtain values of Ki and kinact according to eq. 2.
(§5) where kinact is the maximal rate of inactivation and Ki is the inhibitor concentration that yields half that rate of inactivation.

For test [2], the target named is T2, MAO B (Homo sapiens, UniProt P27338).
T2 sequence (P27338 1-520): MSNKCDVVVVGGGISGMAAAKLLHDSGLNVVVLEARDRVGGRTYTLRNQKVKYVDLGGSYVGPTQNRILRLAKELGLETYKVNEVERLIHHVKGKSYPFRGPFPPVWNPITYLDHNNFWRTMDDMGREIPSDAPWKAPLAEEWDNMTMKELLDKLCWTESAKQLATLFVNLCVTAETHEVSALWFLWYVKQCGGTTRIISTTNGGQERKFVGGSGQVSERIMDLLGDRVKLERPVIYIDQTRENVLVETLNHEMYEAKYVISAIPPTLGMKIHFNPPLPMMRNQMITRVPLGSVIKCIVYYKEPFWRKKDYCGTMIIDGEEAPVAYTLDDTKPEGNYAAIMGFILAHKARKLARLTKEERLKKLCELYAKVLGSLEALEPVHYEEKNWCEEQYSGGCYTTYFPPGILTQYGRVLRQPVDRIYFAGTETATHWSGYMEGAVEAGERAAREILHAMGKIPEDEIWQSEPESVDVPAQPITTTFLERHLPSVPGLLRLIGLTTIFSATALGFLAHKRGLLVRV
Kind of test: HRP-coupled amine oxidase assay, time-dependent inactivation of MAO B. The conditions noted are these: for Ki: inhibitor concentration that yields half the maximal rate of inactivation; for kinact: maximal rate of inactivation. The method, then: as §1, §2, §3, §4, §5

Test [3] concerns the target LSD1 (Homo sapiens, UniProt O60341). Kind of test: HRP-coupled amine oxidase assay, time-dependent inactivation of LSD1. As to conditions: for kinact: maximal rate of inactivation; for Ki: inhibitor concentration that yields half the maximal rate of inactivation. The method, then:
as §1
The C-terminal GYG was added to allow for quantification of the peptide concentration.
as §2, §3, §4, §5

Usually kinact/KI stands for the maximal inactivation rate divided by the concentration that gives half of it. For orientation: kinact means the rate constant of inactivation at saturating inhibitor.

Structures are written as SMILES.

As to `NC1CC1c1ccc(Oc2ccccc2)cc1` (stereo not shown) [compound 3], in test [1], the kinact/KI is 5720 M⁻¹ s⁻¹, the Ki amounted to 12.4 ± 4.3 µM and the kinact amounted to 0.071 ± 0.007 s⁻¹. Besides, in test [2], the kinact/KI is 1100 M⁻¹ s⁻¹, the Ki turned out to be 29.5 ± 4.4 µM and the kinact stood at 0.0623 ± 0.0018 s⁻¹.

Turning to `CC(C)(C)c1ccc(Sc2ccc(C3CC3N)cc2)cc1` (stereo not shown) [compound 5], in test [3], the kinact/KI is 40 M⁻¹ s⁻¹ and the inactivation rate constant (kinact) was determined as 0.0215 ± 0.003 s⁻¹.

For `CCOc1ccc(C2CC2N)cc1` (stereo not shown) [compound 1], in test [1], the kinact/KI was determined as 3140 M⁻¹ s⁻¹, the Ki is 4.3 ± 0.8 µM and the kinact amounted to 0.0135 ± 0.0004 s⁻¹. For the same molecule, in test [3], the kinact/KI stood at 45 M⁻¹ s⁻¹, the Ki is 456 ± 86 µM and the kinact worked out at 0.0204 ± 0.0018 s⁻¹. Moreover, in test [2], the kinact/KI came out at 762 M⁻¹ s⁻¹, the Ki came out at 63 ± 10 µM and the kinact was found to be 0.048 ± 0.004 s⁻¹.

Turning to `NC1CC1c1cccc(OCc2ccccc2)c1` (stereo not shown) [compound 4], in test [3], the kinact/KI amounted to 33 M⁻¹ s⁻¹ and the Ki amounted to 760 ± 280 µM.

On to `CC(C)Oc1ccc(C2CC2N)cc1` (stereo not shown) [compound 2], for which the figures for the kinact/KI in test [1], in test [3] and in test [2] were 1320 M⁻¹ s⁻¹, 54 M⁻¹ s⁻¹ and 383 M⁻¹ s⁻¹, respectively. The Ki in test [1] is 19.7 ± 4.6 µM; in test [3], 352 ± 76 µM; in test [2], 106 ± 20 µM. The values for the kinact in test [1], in test [3] and in test [2] were 0.026 ± 0.002 s⁻¹, 0.0192 ± 0.0017 s⁻¹ and 0.046 ± 0.006 s⁻¹, respectively.
